The values below come from the METLIN SMRT retention time set (Domingo-Almenara et al. 2019).

This series can be described thus: gradient 5% acetonitrile 3 min, to 50% in 2 min, to 85% in 15 min, held 3 min, 100 µL/min. The conditions noted are these: column: Zorbax Extend-C18 2.1 x 50 mm; eluents: water / acetonitrile, 0.1% formic acid. The procedure, abridged:
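Values are retention times taken from adduct peaks that software picked and an analyst inspected. The pure standards were run as mixtures of ~100 molecules on HPLC linked to a quadrupole time-of-flight mass spectrometer, in positive and negative ionization mode. A Zorbax Extend-C18 column (2.1 × 50 mm, 1.8 μm) was used at 100 μL/min with water and acetonitrile, each including 0.1% formic acid.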
Molecule `CCc1cccc(C)c1NC(=O)Cn1cnc2nc(N3CCC(C(=O)NC)CC3)sc2c1=O` returned an RP-LC retention time of 646 s.
Then `Cc1nc2cccnc2n1CC1CCCN(S(=O)(=O)Cc2ccccc2)C1` (stereo not given), with 654 s; and `CSc1ccccc1C(=O)N(Cc1ccsc1)CC(F)(F)F`, with 987 s.
Then `O=C(Cn1cccc1-c1nc(-c2ccc3c(c2)OCO3)no1)Nc1ccc(F)c(F)c1`, with 1100 s; and `O=C(Nc1cccn2cnnc12)c1cnccn1`, with 590 s.
Then `O=C(c1ccc2cc[nH]c2c1)N1CCC(c2nc(C3CC3)n[nH]2)CC1`, with 546 s; and `c1ccc(CCc2nc(-c3ccnc(N4CCOCC4)c3)no2)cc1`, with 919 s; and `CC1=C(c2ccc(F)cc2)S(=O)(=O)N=C1N1CCCN(C(=O)c2ccc(F)cc2)CC1`, with 835 s.
`Cc1nc(-c2csc(S(=O)(=O)N3CCC(C(=O)N4CCc5ccccc54)CC3)c2)no1` had an RP-LC retention time of 595 s.
With `COc1ccccc1N1CCN(Cc2nc3nc(C)cc(N4CCCC4)n3n2)CC1` the figure was 606 s; with `CCc1ccc(NC(=O)CSC2=C(C#N)C3(CCCCC3)C(C#N)C(=O)N2)cc1` (stereo not given), 1030 s; with `COc1ccc(Cl)cc1NC(=O)C1CCN(S(=O)(=O)c2cc(C(=O)N(C)C)cs2)CC1`, 889 s.
Take `CCOc1ccc(-c2ccc(=O)n(Cc3nc(-c4ccc(CC)cc4)no3)n2)cc1`: the RP-LC retention time worked out at 1230 s.
`CCCC(=O)N1CCc2c(c(C(=O)N3CCCC(C(=O)Nc4ccccc4C)C3)nn2C)C1` (stereo not given) yielded an RP-LC retention time of 759 s.
Then `COc1ccc(NS(=O)(=O)c2cn(CC(C)C)c3ncccc23)cc1`, with 896 s; and `CC(C)Cn1nc(CNC(=O)c2ccoc2)c2ccccc21`, with 846 s.
Then `Cc1ccc(-c2nc(C3CCN(S(=O)(=O)c4c(C)cc(C)cc4C)CC3)no2)cc1`, with 1420 s; and `COCc1cc(=O)n(Cc2cc(C)ccc2C)c(N2CCCC2)n1`, with 912 s.
Then `CCNS(=O)(=O)c1cccc(-c2nc(-c3ccc(C)cc3)no2)c1`, with 1100 s.
`COC(=O)c1c(NCCCc2ccccc2)c2cc(F)ccc2[nH]c1=O` came in with an RP-LC retention time of 848 s.
For the molecule `CC1CCN(C(=O)C2CCN(S(=O)(=O)c3ccc4c(c3)sc(=O)n4C(C)C)CC2)CC1`, the RP-LC retention time was determined as 969 s.
With `O=C(Cc1nnc(-c2ccc3ncccc3c2)o1)Nc1ccc(F)cc1Cl` the figure was 730 s.
With `COC(=O)CC(=O)Nc1cc2c(cc1N1CCOCC1)n(C)c(=O)n2C` the figure was 597 s.
With `COc1ccc(NC(=O)N2CCCC(C)(C(=O)NCc3cccc(OC)c3)C2)cc1` (stereo not given) the figure was 792 s; with `COc1ccccc1C(=O)N1CCN(c2cnn3c(C4CC4)nnc3c2)CC1`, 623 s; with `O=C(CSc1ncnc2c1[nH]c1ccc(Br)cc12)NC1CCCCC1`, 957 s.
Regarding `CN(C)c1nccnc1OC1CCN(C(=O)c2ccccc2Br)C1` (stereo not given), the RP-LC retention time was determined as 752 s.
Molecule `O=C(COc1ccc2ccccc2c1)NCC1CCN(C2CCCC2)CC1` displayed an RP-LC retention time of 590 s.
Then `CCOc1ccc2ncc(C(=O)c3ccc(C)cc3)c(N3CCN(CC)CC3)c2c1`, with 622 s; and `CCOc1ccc2nc(NC3=NCN(CCCOC)CN3)nc(C)c2c1`, with 668 s.
The molecule `CCOc1ccc(-n2c(=O)c3sccc3n(Cc3nc(-c4ccccc4OCC)no3)c2=O)cc1` had an RP-LC retention time of 1020 s.
With `CN1CCN(CCCNC(=O)c2ccc(CS(=O)c3cccc(Cl)c3)o2)CC1` (stereo not given) the figure was 527 s; with `COCCNC(=O)N1CCC(C(=O)NCC(F)(F)F)CC1`, 571 s.
With `N#Cc1ccc(CN2CC(n3cc(COc4ccc(F)cc4)nn3)C2)cc1` the figure was 678 s; with `O=C(NCC1CCN(Cc2ccccc2)CC1)C(=O)Nc1ccc(F)cc1F`, 573 s; with `COc1ccc(-c2cn3cccnc3n2)cc1NC(=O)c1ccc(F)c(F)c1`, 718 s.
With `CCOc1ccc(/C=C/c2nc(C#N)c(NCCN(C)C)o2)cc1` the figure was 668 s.
Molecule `COC(=O)Cn1nc2ccc(S(=O)(=O)N3CCC(C)CC3)cn2c1=O` came in with an RP-LC retention time of 819 s.
Regarding `O=C(Nc1cccc(Cl)c1)N1CCCC1c1nc(-c2ccc(F)cc2F)no1` (stereo not given), the RP-LC retention time came to 1030 s.
Take `COC(=O)C1C(=O)C2=C(CC1C)NC(C)=C(C(=O)OCCOC(C)C)C2c1ccccc1F` (stereo not given): the RP-LC retention time is 914 s.
With `O=C(NCc1ccccc1C(F)(F)F)c1ccc2c(c1)ncn2CCN1CCCC1`, the RP-LC retention time stood at 599 s.
With `O=C(NCc1ccc(Cl)cc1)C1CCCN(c2ncnc3c2nc2n3CCCCC2)C1` (stereo not given), the RP-LC retention time was 812 s.
Molecule `O=C(C1CCN(c2cnc3nccnc3c2)CC1)N1CCN(c2ccc(Cl)cc2)CC1` gave an RP-LC retention time of 810 s.
`CCc1ccc(NC(=O)c2cc3c(=O)n(CC)ccc3n2C)cc1` came in with an RP-LC retention time of 753 s.
Then `CCN(Cc1ccccc1)C(=O)Cn1cnc(C)cc1=O`, with 624 s; and `CC(C)n1ccc(-c2nnc(NC(=O)COc3ccc(Cl)cc3Cl)o2)n1`, with 793 s.
With `Cc1c(C)n(CC(O)CNC(C)c2ccccc2)c2ccccc12` (stereo not given) the figure was 605 s; with `O=C1CC(c2noc(-c3ccc(F)c(Cl)c3)n2)CN1c1ccc(F)cc1` (stereo not given), 1070 s.
With `COc1ccc(C(=O)Nc2nnc(C3CC(=O)N(c4ccc(Cl)cc4)C3)o2)cc1` (stereo not given) the figure was 773 s.
`CN(CC1CCOC1)C(=O)Nc1cccc(Cl)c1F` (stereo not given) came in with an RP-LC retention time of 733 s.
Then `CCn1cc(C2=CCN(C(=O)NCc3cccc(F)c3)CC2)c2cccnc21`, with 850 s; and `O=C(Nc1cn(-c2ccc(C(=O)N3CCN(c4cccc(Cl)c4)CC3)cc2)cn1)C1CC1`, with 810 s; and `O=C(Nc1cc(-c2ccsc2)no1)C1CC1`, with 792 s.
As to `Cc1nn(CC(=O)NC2CC2)c(=O)c2nc(-c3ccccc3)sc12`, the RP-LC retention time amounted to 711 s.
Then `COc1ccc(OC)c(-c2csc(-c3nnn(-c4cccc(Cl)c4)c3N)n2)c1`, with 1180 s; and `O=C(Cn1cccc1-c1nnc(C2CCC2)o1)N1CCc2ccccc21`, with 946 s.
The molecule `Cc1ccc([N+](=O)[O-])cc1NC(=O)c1cccc([N+](=O)[O-])c1O` returned an RP-LC retention time of 913 s.
With `CCOC(=O)c1[nH]c(C)c(CCC(=O)NCc2ccc3c(c2)OCO3)c1C` the figure was 780 s.
Then `O=C(NCc1cccc(C(F)(F)F)c1)C1CCCN(c2nccnc2Sc2ccccc2)C1` (stereo not given), with 1100 s; and `CCOC(=O)N1CCC(NC(=O)c2coc(NC(=O)c3ccco3)n2)CC1`, with 605 s.
`Cc1noc(-c2nc(-c3cccc(C(F)(F)F)c3)no2)n1`: the RP-LC retention time came to 1080 s.
With `CCOc1ccc(S(=O)(=O)N2CCC(C(=O)NCc3ccccn3)CC2)cc1C` the figure was 680 s.
`O=C(Cn1cnc2c(nc3n2CCCCC3)c1=O)N1CCC(Cc2ccccc2)CC1` returned an RP-LC retention time of 764 s.
Then `O=C(Nc1ccc2c(c1)OCCO2)N1CCC(n2c(-c3ccoc3)nc3cccnc32)C1` (stereo not given), with 648 s; and `Cn1nc(-c2ccccc2)nc1C1CN(C(=O)NCC2CCCO2)C1` (stereo not given), with 625 s.
Take `COc1ccc(C)cc1NC(=O)N1CCCC1c1cc(C)on1` (stereo not given): the RP-LC retention time is 863 s.
With `CC(C)n1c(N2CCN(C(=O)c3ccccn3)CC2)cc(=O)n(C(C)C)c1=O` the figure was 709 s.
`O=C(CN1CCN(C(=O)Nc2ccc(Br)cc2)CC1=O)N1CCCCC1` gave an RP-LC retention time of 701 s.
Then `Cc1nc(-c2ccc(NC(=O)N3CCN(c4ccccn4)CC3)cc2)no1`, with 588 s; and `O=C(CSc1ncc(CO)n1Cc1ccc(F)cc1)N1CCCc2ccccc21`, with 702 s; and `C=C(C)COc1ccc2oc(C)c(C(=O)O)c2c1`, with 879 s.
Then `COc1ccc(-c2c(C)noc2NC(C)=O)cc1S(=O)(=O)Nc1cccc(C#N)c1`, with 708 s.
Regarding `Cc1sc2ncnc(N3CCCC(C)C3)c2c1C(=O)Nc1cc(F)c(F)cc1F` (stereo not given), the RP-LC retention time is 858 s.
With `COc1ccc(-c2ncc3c(n2)CCN(S(=O)(=O)c2ccc(F)c(F)c2)C3)cc1` the figure was 1060 s.
With `O=C(NC1CC1)c1nc2ccccn2c1-c1ccc(F)cc1` the figure was 709 s; with `Cc1ccc(CNC(=O)CC2CCN(C(=O)c3[nH]c(C)c(C(=O)OC(C)C)c3C)CC2)cc1`, 853 s.
`Nc1ncnc2c1ncn2C1CCCC1` yielded an RP-LC retention time of 595 s.
As to `CCOc1cccc(CN2Cc3ccccc3OC3(CCN(CCOC)CC3)C2)c1`, the RP-LC retention time stood at 619 s.
Then `CCn1cc(CN2CC(Oc3ccc(-c4noc(-c5cccnc5)n4)cc3)C2)cn1`, with 635 s.
Molecule `Cc1ccc(-c2ccc(=O)n(C(C)C(=O)O)n2)cc1` (stereo not given) showed an RP-LC retention time of 684 s.
